From patent publication US20070031907A1, “Anaplastic lymphoma kinase assay, reagents and compositions thereof” (Istituto Nazionale Per Lo Studio E La Cura Dei Tumori, priority 2003, published 2007)

Molecular target: T1, purified rALK (Homo sapiens, UniProt Q9UM73)
T1 construct: A portion of ALK, stretching from amino acids Leu^1073 to Ala^1459, has been cloned into the baculovirus transfer vector; made in house; host or cells: Sf9 (Spodoptera frugiperda) insect cells, baculovirus (pBlueBacHis2C, MaxBac 2.0)
Experiment: ELISA-based in vitro kinase assay
Assay type: biochemical
Method: ELISA-based in vitro Kinase Assay A Nunc Immuno 96 well plate was incubated overnight at 37° C. with coating solution (125 μl/well) containing ALK peptide substrate (SEQ ID N. 1 or SEQ ID N. 2) at various concentrations in PBS. The wells were then washed with 200 μl of wash buffer (PBS-Tween 0.05%) and left to dry for at least 2 hours at 37° C. […] The reaction mix was then removed and wells were washed 5 times with 200 μl of wash buffer. Phosphorylated peptide was detected using 100 μl/well of a mouse monoclonal anti-phosphotyrosine antibody (clone 4G10 UpstateBiotech Ltd) diluted 1:500 in PBS+4% BSA. After 30 minutes incubation at room temperature the antibody was removed and wells were washed as described above. 100 μl of a secondary antibody (anti-mouse IgG, Horseradish Peroxidase linked whole antibody, from sheep, Amersham Pharmacia Biotech) diluted 1:1000 in PBS+4% BSA was added to each well and the plate was incubated again for 30 minutes at room temperature before washing as above. The plate was developed using 100 μl/well TMB Substrate Solution (Endogen) and the reaction was stopped by adding an equal volume of H2SO4 0.18 M. Finally, the absorbance was read at 450 or 490 nm using an Ultrospec® 300 spectrophotometer (Amersham-Pharmacia Biotech).

T1 sequence (Q9UM73 1073-1459): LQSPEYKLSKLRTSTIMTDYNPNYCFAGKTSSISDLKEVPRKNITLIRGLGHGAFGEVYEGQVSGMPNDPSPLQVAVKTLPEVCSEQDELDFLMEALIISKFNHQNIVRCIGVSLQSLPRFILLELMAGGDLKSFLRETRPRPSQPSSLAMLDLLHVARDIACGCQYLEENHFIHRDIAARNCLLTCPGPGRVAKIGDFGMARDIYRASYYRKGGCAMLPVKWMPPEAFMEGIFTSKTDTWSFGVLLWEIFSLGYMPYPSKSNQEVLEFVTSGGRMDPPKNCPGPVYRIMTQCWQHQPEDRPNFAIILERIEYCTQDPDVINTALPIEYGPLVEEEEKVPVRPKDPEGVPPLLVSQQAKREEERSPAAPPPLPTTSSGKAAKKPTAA

## CN[C@@H]1C[C@H]2O[C@@](C)([C@@H]1OC)n1c3ccccc3c3c4c(c5c6ccccc6n2c5c31)C(=O)NC4 [Staurosporine]
42 μM peptide substrate, 20 ng rALK, 30° C., 15 mins
  concentration reaching maximum inhibition of rALK activity: 1 µM
Positive control for screening
  concentration at which effective as an ALK inhibitor: 0.2 to 0.3 µM
